The numbers were not newly measured in patent US20220175800A1, “DISPERSIBLE TABLET COMPOSITION” (PTC THERAPEUTICS INC., priority 2019, published 2022), which cites them from elsewhere.

As for `CC(=O)OCC(=O)[C@@]12N=C(C)O[C@@H]1C[C@H]1[C@@H]3CCC4=CC(=O)C=C[C@]4(C)[C@H]3[C@@H](O)C[C@@]12C` [Deflazacort, (11β,16β)-21-(acetyloxy)11-hydroxy-2′-methyl-5′H-pregna-1,4-dieno[17,16-d]oxazole-3,20-dione], the Solubility in water entry was “poorly soluble in water”.
